Assay: molar heat capacity at constant pressure
Settings: 101.33 kPa, Liquid, DSC

CCCCCCCC[n+]1ccn(C)c1.F[P-](F)(F)(F)(F)F [1-octyl-3-methylimidazolium hexafluorophosphate]
Settings	molar heat capacity at constant pressure [J/K/mol]
253.15 K	549.23
258.15 K	551.95
263.15 K	554.33
268.15 K	556.71
273.15 K	559.77
278.15 K	562.84
283.15 K	566.92
288.15 K	570.32
293.15 K	573.73
298.15 K	577.47
303.15 K	580.53
308.15 K	584.28
313.15 K	587.34
318.15 K	590.4
323.15 K	593.46
328.15 K	597.21
333.15 K	600.27
338.15 K	602.99
343.15 K	606.05
348.15 K	608.78
353.15 K	611.84
358.15 K	614.22
363.15 K	617.28
368.15 K	620.01
373.15 K	622.39
378.15 K	625.45
383.15 K	628.17
388.15 K	630.55
393.15 K	633.28
398.15 K	636.68
403.15 K	639.74
408.15 K	643.83
413.15 K	646.89
